{
  "source": "patent US7329659B2",
  "about": "“Substituted-1-phthalazinamines as vr-1 antagonists” (Merck Sharp & Dohme Limited, priority 2003, dated 2008)",
  "origin": "cited, not measured here",
  "biological_target": "VR1 (Rattus norvegicus, UniProt O35433)",
  "sequence (O35433 whole entry)": "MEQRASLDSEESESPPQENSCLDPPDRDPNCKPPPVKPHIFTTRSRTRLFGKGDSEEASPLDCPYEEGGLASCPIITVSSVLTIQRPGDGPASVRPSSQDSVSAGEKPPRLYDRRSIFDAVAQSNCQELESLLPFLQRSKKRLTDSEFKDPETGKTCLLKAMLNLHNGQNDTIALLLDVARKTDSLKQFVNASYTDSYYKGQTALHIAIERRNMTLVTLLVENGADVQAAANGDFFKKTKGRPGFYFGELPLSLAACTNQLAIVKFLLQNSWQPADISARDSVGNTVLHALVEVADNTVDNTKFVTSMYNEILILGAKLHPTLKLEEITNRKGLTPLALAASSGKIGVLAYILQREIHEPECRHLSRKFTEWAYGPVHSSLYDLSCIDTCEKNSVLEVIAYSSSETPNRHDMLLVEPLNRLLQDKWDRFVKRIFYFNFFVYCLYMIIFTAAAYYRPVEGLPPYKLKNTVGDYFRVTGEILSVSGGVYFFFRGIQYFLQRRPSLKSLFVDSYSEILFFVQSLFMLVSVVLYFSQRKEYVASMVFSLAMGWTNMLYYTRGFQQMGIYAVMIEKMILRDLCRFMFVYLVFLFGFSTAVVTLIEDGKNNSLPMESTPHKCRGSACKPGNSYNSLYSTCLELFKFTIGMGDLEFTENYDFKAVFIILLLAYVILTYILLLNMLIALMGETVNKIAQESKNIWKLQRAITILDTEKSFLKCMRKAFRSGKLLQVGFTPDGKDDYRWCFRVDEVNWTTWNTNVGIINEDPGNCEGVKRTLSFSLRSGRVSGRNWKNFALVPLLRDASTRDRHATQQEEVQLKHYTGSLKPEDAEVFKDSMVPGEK",
  "conditions": "Wahl et al., Mol. Pharmacol., 59:9, 2001",
  "data": [
    {"smiles": "C=C(C)[C@]12C[C@@H](C)[C@@]34O[C@](Cc5ccccc5)(O[C@@H]1[C@@H]3C=C(COC(=O)Cc1cc(I)c(O)c(OC)c1)C[C@]1(O)C(=O)C(C)=C[C@@H]41)O2", "note": "[Iodo-resiniferatoxin]", "values": [
      {"measurement": "VR1 antagonist potency (in words)", "result": "nanomolar antagonist of VR1"}
    ]}
  ]
}
